According to publication PMC8611843 (BMC Cancer, 2021):
Like-named read-outs stand apart in the source and are kept apart here.

What was measured:
[1] = system: HLA-DR, CD69, ICOS on CD4+ and CD8+ T-cells; assay: T-cell activation markers on CD4+ and CD8+ T-cells in PBMCs; format: in vivo, Japanese patients; conditions: Cohorts 1–3
Protocol: Staining of CD3+ cells was performed using antibodies (all from BioLegend) against CD4 (Clone RPA-T4, Cat. 300512), CD8 (Clone SK-1, Cat. 344718), CD69 (Clone FN50, Cat. 310910), inducible T-cell costimulator (ICOS; Clone […], Cat. 313514), and human leukocyte antigen-DR (HLA-DR; Clone L243, Cat. 307630).

[2] = once weekly; cited from earlier work
[3] = system: PBMCs derived from lung cancer patients; parameters: method as in PMID 28408401; conditions: cited from earlier work
[4] = Electrocardiogram, change in QTc interval; format: in vivo, Japanese patients; conditions: patients tested
Protocol: (§1) The primary endpoint was safety. The severity of adverse events (AEs) was evaluated using National Cancer Institute Common Terminology Criteria for Adverse Events version 4.03 [21].

[5] = Plasma ENT concentration and PK parameters (LC/MS/MS); format: in vivo, Japanese patients
Protocol: The PK parameters assessed after single and/or combination therapy included time at which maximum plasma concentration (Cmax) was observed (tmax), and the area under the plasma concentration-time curve from time 0–168 h (AUC0–168).

[6] = Phase 1 3 + 3 dose-escalation study: safety, DLTs and drug-related AEs (CTCAE v4.03); format: in vivo
Protocol: This study was based on a 3 + 3 dose-escalation design (Additional file 1). […] The duration of cycle 0 was 7 days and that of each cycle after cycle 1 was 28 days in principle. Treatment continued until progressive disease (PD) or discontinuation for other reasons (Additional file 1).
as §1
However, patients with nausea, vomiting, diarrhea, and hypophosphatemia were allowed to continue treatment without interruption by receiving the appropriate care.
AEs were summarized by System Organ Class and Preferred Term according to the Medical Dictionary for Regulatory Activities, version 20.1. The Kaplan-Meier method was used to estimate the median PFS (mPFS). PFS is defined as the duration of time from day 1 to the date of death or of PD, whichever came first. Patients who received subsequent therapy before confirmation of PD or in whom neither PD nor death was confirmed were censored at the last time point of non-PD confirmation. Clinical benefit rate (CBR) was defined as the percentage of patients achieving complete response (CR) or partial response (PR), or who maintained stable disease (SD) for more than 6 months.

[7] = system: Ac-K levels in CD19+ cells; assay: Protein lysine acetylation (Ac-K) levels in PBMCs; format: in vivo, Japanese patients; conditions: 24 h after first administration
Protocol: Ac-K levels in CD19+ cells, CD56+ CD16- cells, CD14+ monocytes, CD16+ cells, CD3+ T-cells, and CD45+ cells were measured using the previously reported methods, with a modification where antiacetylated lysine monoclonal antibody (BioLegend, San Diego, CA, USA; Clone 15G10, Cat. 623406) was used.

[8] = system: HR+/HER2− advanced or metastatic BC; conditions: BOLERO-2, cited from earlier work
[9] = system: HR+/HER2− advanced or metastatic BC; parameters: method as in PMID 23650416; conditions: ENCORE 301, N = 130; cited from earlier work
[10] = Cohort 1 N = 3, ENT 3 mg mono → EXE combo
[11] = Cohort 2 N = 3, ENT 5 mg mono → EXE combo
[12] = Cohort 3 N = 3, ENT 10 mg mono → EXE combo
[13] = Cohort 4 N = 3, ENT 5 mg + EXE combo
[14] = Total N = 12, as of data cut-off date

## Nc1ccccc1NC(=O)c1ccc(CNC(=O)OCc2cccnc2)cc1 [ENT, Entinostat]
[1]
  Expression of HLA-DR in CD4+ and CD8+ T-cells: increased over time
[1]; some patients, greater with SD ≥ 6 months
  Expression of CD69: Increased expression
[2]
  Maximum tolerated dose: 4 mg/m^2
[3]
  T-cell activation markers such as CD69: increases
[4]
  Effect on electrocardiograms: no effect
[5]; ENT alone, 3, 5, 10 mg
  AUC0–168 dose dependency: increased linearly with dose
[5]; all cohorts
  Steady state reached: cycle 1, day 15
[5]; human, plasma, oral administration, all cohorts
  Tmax: 28.8 to 85.2 min
[5]; intersubject variability high at 10 mg
  Cmax dose dependency: increased in accordance with dose escalation between 3 mg and 5 mg
[6]; [10]
  Anemia, G2 (n patients, drug-related AE): 1
  Back pain, G1 (n patients, drug-related AE): 1
  Diarrhea, G2 (n patients, drug-related AE): 1
  Hypoalbuminemia, G1 (n patients, drug-related AE): 1
  Hypoalbuminemia, G2 (n patients, drug-related AE): 1
  Neutrophil count decreased, G2 (n patients, drug-related AE): 2
  Neutrophil count decreased, G3 (n patients, drug-related AE): 1
  Platelet count decreased, G1 (n patients, drug-related AE): 2
  Pneumonitis, G1 (n patients, drug-related AE): 1
  Weight decreased, G2 (n patients, drug-related AE): 1
  White blood cell count decreased, G1 (n patients, drug-related AE): 1
  White blood cell count decreased, G2 (n patients, drug-related AE): 1
[6]; [11]
  Anemia, G1 (n patients, drug-related AE): 1
  Decreased appetite, G1 (n patients, drug-related AE): 1
  Diarrhea, G1 (n patients, drug-related AE): 1
  Fatigue, G1 (n patients, drug-related AE): 1
  Gastritis, G1 (n patients, drug-related AE): 1
  Headache, G1 (n patients, drug-related AE): 1
  Hypoalbuminemia, G2 (n patients, drug-related AE): 1
  Hypophosphatemia, G3 (n patients, drug-related AE): 2
  Nausea, G1 (n patients, drug-related AE): 2
  Neutrophil count decreased, G2 (n patients, drug-related AE): 1
  Neutrophil count decreased, G3 (n patients, drug-related AE): 1
  Platelet count decreased, G1 (n patients, drug-related AE): 1
  Platelet count decreased, G3 (n patients, drug-related AE): 1
  White blood cell count decreased, G2 (n patients, drug-related AE): 1
[6]; [12]
  Anemia, G2 (n patients, drug-related AE): 1
  Back pain, G1 (n patients, drug-related AE): 1
  Decreased appetite, G1 (n patients, drug-related AE): 1
  Fatigue, G1 (n patients, drug-related AE): 1
  Headache, G1 (n patients, drug-related AE): 1
  Hypoalbuminemia, G2 (n patients, drug-related AE): 2
  Hypophosphatemia, G2 (n patients, drug-related AE): 1
  Hypophosphatemia, G3 (n patients, drug-related AE): 1
  Nausea, G1 (n patients, drug-related AE): 2
  Neutrophil count decreased, G2 (n patients, drug-related AE): 1
  Platelet count decreased, G1 (n patients, drug-related AE): 1
  White blood cell count decreased, G2 (n patients, drug-related AE): 1
[6]; [13]
  Anemia, G3 (n patients, drug-related AE): 1
  Fatigue, G1 (n patients, drug-related AE): 1
  Gastritis, G1 (n patients, drug-related AE): 1
  Hypoalbuminemia, G1 (n patients, drug-related AE): 1
  Hypoalbuminemia, G2 (n patients, drug-related AE): 1
  Hypophosphatemia, G3 (n patients, drug-related AE): 1
  Nausea, G1 (n patients, drug-related AE): 2
  Neutrophil count decreased, G2 (n patients, drug-related AE): 1
  Neutrophil count decreased, G3 (n patients, drug-related AE): 1
  Platelet count decreased, G2 (n patients, drug-related AE): 1
  Platelet count decreased, G3 (n patients, drug-related AE): 1
  Pneumonitis, G1 (n patients, drug-related AE): 1
  Weight decreased, G1 (n patients, drug-related AE): 1
  White blood cell count decreased, G2 (n patients, drug-related AE): 1
[6]; DLT observation period
  Drug-related hypophosphatemia, grade 1 or 2: one patient in Cohorts 2, 3, and 4
  Drug-related nausea, grade 1: one patient in Cohort 3 and two patients in Cohort 4
  Drug-related platelet count decreased, grade 1 or 2: two patients in Cohort 4
[6]; DLT observation period, ENT 3 mg or 5 mg once weekly or 10 mg single dose mono, ENT 5 mg weekly + EXE 25 mg/d
  DLTs or grade 3–5 AEs: no DLTs or grade 3–5 AEs occurred
[6]; [14]
  Anemia, G1 (n patients, drug-related AE): 1
  Anemia, G2 (n patients, drug-related AE): 2
  Anemia, G3 (n patients, drug-related AE): 1
  Back pain, G1 (n patients, drug-related AE): 2
  Decreased appetite, G1 (n patients, drug-related AE): 2
  Diarrhea, G1 (n patients, drug-related AE): 1
  Diarrhea, G2 (n patients, drug-related AE): 1
  Fatigue, G1 (n patients, drug-related AE): 3
  Gastritis, G1 (n patients, drug-related AE): 2
  Headache, G1 (n patients, drug-related AE): 2
  Hypoalbuminemia, G1 (n patients, drug-related AE): 2
  Hypoalbuminemia, G2 (n patients, drug-related AE): 5
  Hypophosphatemia, G2 (n patients, drug-related AE): 1
  Hypophosphatemia, G3 (n patients, drug-related AE): 4
  Nausea, G1 (n patients, drug-related AE): 6
  Neutrophil count decreased, G2 (n patients, drug-related AE): 5
  Neutrophil count decreased, G3 (n patients, drug-related AE): 3
  Platelet count decreased, G1 (n patients, drug-related AE): 4
  Platelet count decreased, G2 (n patients, drug-related AE): 1
  Platelet count decreased, G3 (n patients, drug-related AE): 2
  Pneumonitis, G1 (n patients, drug-related AE): 2
  Weight decreased, G1 (n patients, drug-related AE): 1
  Weight decreased, G2 (n patients, drug-related AE): 1
  White blood cell count decreased, G1 (n patients, drug-related AE): 1
  White blood cell count decreased, G2 (n patients, drug-related AE): 4
[6]; by data cut-off date
  Study treatment interrupted because of grade 3 platelet count decreased: two patients
  Study treatment interrupted owing to grade 3 neutrophil count decreased: Three patients
[6]; during DLT observation period, all cohorts
  ENT dose reduction: not observed
[6]; in combination with EXE after DLT observation period
  ENT dose reduction from 5 mg to 3 mg owing to platelet count decreased and hypophosphatemia: one patient in Cohort 2 and two patients in Cohort 4
[6]; start of study to cut-off date
  Serious AEs (SAEs): one case each of abdominal pain (grade 2), pulmonary embolism (grade 3), maculopapular rash (grade 3), and femoral neck fracture (grade 3)
[7]; Cohort 1 (ENT 3 mg)
  Increase of Ac-K levels in CD19+ cells vs prior to administration: about 1.5 fold
[7]; Cohort 2 (ENT 5 mg)
  Increase of Ac-K levels in CD19+ cells vs prior to administration: ~1.9 fold
[7]; Cohort 3 (ENT 10 mg)
  Increase of Ac-K levels in CD19+ cells vs prior to administration: ~2.7 fold

## C=C1C[C@@H]2[C@H](CC[C@]3(C)C(=O)CC[C@@H]23)[C@@]2(C)C=CC(=O)C=C12 [EXE, exemestane]
[8]; 35 Japanese patients
  mPFS: 4.21 months
[8]; second-line or later hormonal therapy
  mPFS: 4.1 months
[9]
  Median OS: 19.84 months
  Median PFS: 2.3 months
[5]; ENT monotherapy vs ENT + EXE 25 mg/d
  Influence on the PK of ENT: no influence
